The text below walks through data of PMC7489219 (Molecular Brain, 2020).

Structures can show the parent of a compound that is named as a salt.

The subject of the test is T1, primary mouse cortical neurons.
T1 construct: primary cortical neurons, DIV 10
Nature of the test: cells. The note with it: Cortical neurone, 20 h, read-out: % inhibition, inhibition of NMDA-induced cell death (protection score), 30 min pre-treatment. Also on record: Protection from NMDA-induced (30 uM, 10 min) neuronal death; Hoechst nuclear morphology by automated microscopy. In a few lines: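 On DIV 10, primary mouse cortical neurons were given compound at 10 μM for 30 min at 37 °C, then 30 μM NMDA for 10 min, washed, and kept 20 h with compound. Dead cells were scored by nuclear morphology, and % protection was derived from survival relative to vehicle + NMDA and untreated controls.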

As for `C[C@@H]1O[C@@H](O[C@H]2[C@H](Oc3cc(O)c4c(c3)O[C@H](c3ccc(O)cc3)CC4=O)O[C@H](CO)[C@@H](O)[C@@H]2O)[C@H](O)[C@H](O)[C@H]1O` [Naringin (Naringoside)], the inhibition at 10 µM is -0.553%.
For `CCOC(=O)[C@H](CCc1ccccc1)N[C@@H](C)C(=O)N1CCC[C@H]1C(=O)O` [Enalapril maleate (Vasotec)], the inhibition at 10 µM worked out at 54.5%.
With `CCN(CC)CC(=O)Nc1c(C)cccc1C` [Lidocaine (Alphacaine)], the inhibition at 10 µM was -8.6%.
Next, `C[C@@H]1O[C@@H](OC[C@H]2O[C@@H](Oc3c(-c4ccc(OCCO)c(OCCO)c4)oc4cc(OCCO)cc(O)c4c3=O)[C@H](O)[C@@H](O)[C@@H]2O)[C@H](O)[C@H](O)[C@H]1O` [Troxerutin]: 23.8%; `C[C@@H](O)[C@H]1C(=O)N2C(C(=O)[O-])=C(SC3Cn4cnc[n+]4C3)[C@H](C)[C@H]12` (some centres unmarked) [Biapenem]: 3.3%.
With `O=c1c2ccccc2oc2ccccc12` [Xanthone (Genicide)] the figure was 7.85%.
As to `CC(C)(C)NC(=O)[C@H]1CC[C@H]2[C@@H]3CC[C@H]4NC(=O)C=C[C@]4(C)[C@H]3CC[C@]12C` [Finasteride], the inhibition at 10 µM came out at 59.6%.
Next, `CCC1(c2ccccc2)C(=O)NCNC1=O` [Primidone (Mysoline)]: 27.9%; `Cc1noc(NS(=O)(=O)c2ccc(N)cc2)c1C` [Sulfisoxazole]: -0.221%.
Next, `C[C@@](Cc1ccc(O)c(O)c1)(NN)C(=O)O` [Carbidopa]: -2.32%; `CC(O)(CS(=O)(=O)c1ccc(F)cc1)C(=O)Nc1ccc(C#N)c(C(F)(F)F)c1` (centres unmarked) [Bicalutamide (Casodex)]: -3.38%.
With `COc1ccc2cc1Oc1ccc(cc1)C[C@H]1c3cc(c(OC)cc3CCN1C)Oc1c(OC)c(OC)cc3c1[C@H](C2)N(C)CC3` [Tetrandrine (Fanchinine)] the figure was 9.82%; with `CCN(CC)C(=S)SSC(=S)N(CC)CC` [Disulfiram (Antabuse)], -13.6%.
On to `O=c1[nH]c(=O)n([C@H]2C[C@H](O)[C@@H](CO)O2)cc1C(F)(F)F` [Trifluridine (Viroptic)], for which the inhibition at 10 µM was 9.42%.
As to `COc1ccc(-c2coc3cc(O)ccc3c2=O)cc1` [Formononetin (Formononetol)], the inhibition at 10 µM was -0.533%.
Next, `O=C1C=CC[C@@H]2[C@H]3CCCN4CCC[C@@H](CN12)[C@@H]34` [Sophocarpine]: 0.911%.
With `Cc1nc2n(c(=O)c1CCN1CCC(c3noc4cc(F)ccc34)CC1)CCCC2O` (centres unmarked) [Paliperidone (Invega)], the inhibition at 10 µM was -1.54%.
Next, `Nc1nc2ccc(OC(F)(F)F)cc2s1` [Riluzole (Rilutek)]: 40.9%.
With `COCCCOc1cc(C[C@@H](C[C@H](N)[C@@H](O)C[C@H](C(=O)NCC(C)(C)C(N)=O)C(C)C)C(C)C)ccc1OC` [Aliskiren hemifumarate] the figure was 30.5%; with `COC(=O)[C@H](c1ccccc1Cl)N1CCc2sccc2C1` [Clopidogrel (Plavix)], -12%; with `CC1=C(CC(=O)O)c2cc(F)ccc2/C1=C\c1ccc([S+](C)[O-])cc1` (centres unmarked) [Sulindac (Clinoril)], -5.67%.
Next, `C=C1C(=O)O[C@H]2[C@H]1CC/C(C)=C/CC[C@@]1(C)O[C@@H]21` [Parthenolide ((-)-Parthenolide)]: -3.83%; `CC1=C(/C=C/C(C)=C/C=C/C(C)=C/C(=O)O)C(C)(C)CCC1` [Tretinoin (Aberela)]: -38.4%.
As to `COc1ccccc1N1CCN(CC(O)COc2cccc3ccccc23)CC1` (centres unmarked) [Naftopidil (Flivas)], the inhibition at 10 µM is -8.14%.
With `O=c1cc(-c2ccccc2)oc2cc(O)c(O)c(O)c12` [Baicalein] the figure was -2.71%; with `CN(C)CCCN1c2ccccc2CCc2ccc(Cl)cc21` [Clomipramine hydrochloride (Anafranil)], -0.839%.
Next, `CN1[C@@H]2CC[C@H]1C[C@@H](OC(=O)c1c[nH]c3ccccc13)C2` [Tropisetron]: -4.08%.
Next, `O=P(O)(O)C(O)(Cc1cccnc1)P(=O)(O)O` [Risedronate sodium]: 4.5%; `CC[C@@]1(O)C(=O)OCc2c1cc1n(c2=O)Cc2cc3ccccc3nc2-1` [Camptothecin]: -13.4%.
As to `CC=CC1=C(C(=O)O)N2C(=O)[C@@H](NC(=O)[C@H](N)c3ccc(O)cc3)[C@H]2SC1` (mixture of isomers) [Cefprozil hydrate (Cefzil)], the inhibition at 10 µM was 0.674%.
Next, `N[C@@H](CSCCCO)C(=O)O` [Fudosteine]: 7.72%.
With `NS(=O)(=O)c1cc2c(cc1Cl)N=CNS2(=O)=O` [Chlorothiazide] the figure was 31.3%; with `O=C(/C=C/C=C/c1ccc2c(c1)OCO2)N1CCCCC1` [Piperine (1-Piperoylpiperidine)], -1.51%; with `CCCC1O[C@@H]2C[C@H]3[C@@H]4CCC5=CC(=O)C=C[C@]5(C)[C@H]4[C@@H](O)C[C@]3(C)[C@]2(C(=O)CO)O1` (some centres unmarked) [Budesonide], -9.49%.
With `CC[C@@H]([C@H](C)O)n1ncn(-c2ccc(N3CCN(c4ccc(OC[C@@H]5CO[C@@](Cn6cncn6)(c6ccc(F)cc6F)C5)cc4)CC3)cc2)c1=O` [Posaconazole] the figure was -12.5%; with `Cc1ccc(NC(=O)c2ccc(CN3CCN(C)CC3)cc2)cc1Nc1nc(-c2cccnc2)cs1` [Masitinib (AB1010)], -5.13%; with `Cc1cccc(Nc2ccncc2S(=O)(=O)NC(=O)NC(C)C)c1` [Torsemide (Demadex)], 22%.
In the case of `O=C(O)CCCc1c[nH]c2ccccc12` [3-Indolebutyric acid (IBA)], the inhibition at 10 µM is -1.77%.
With `Cc1cc(O)c2c(c1)C(=O)c1cccc(O)c1C2=O` [Chrysophanic acid (Chrysophanol)] the figure was 8.58%.
Next, `CCC[C@@H]1C[C@@H](C(=O)N[C@@H]([C@H]2O[C@H](SC)[C@H](O)[C@@H](O)[C@H]2O)[C@H](C)Cl)N(C)C1` [Clindamycin hydrochloride (Dalacin)]: 2.41%; `Nc1ncnc2c1ncn2[C@@H]1O[C@H](CO)[C@@H](O)[C@H]1O` [Adenosine (Adenocard)]: 15.3%.
Regarding `COc1ccc2cc3[n+](cc2c1OC)CCc1cc2c(cc1-3)OCO2` [Berberine Hydrochloride], the inhibition at 10 µM was -2.08%.
With `C[C@@H](NCCc1ccc(O)cc1)[C@@H](O)c1ccc(O)cc1` (racemic) [Ritodrine hydrochloride (Yutopar)] the figure was 3.89%.
In the case of `CCN(CC)CC#CCOC(=O)C(O)(c1ccccc1)C1CCCCC1` (centres unmarked) [Oxybutynin (Ditropan)], the inhibition at 10 µM was 37.3%.
Take `Nc1nc(F)nc2c1ncn2[C@@H]1O[C@H](COP(=O)(O)O)[C@@H](O)[C@@H]1O` [Fludarabine Phosphate (Fludara)]: the inhibition at 10 µM is -10.8%.
As to `CN(C)/N=N/c1nc[nH]c1C(N)=O` [Dacarbazine (DTIC-Dome)], the inhibition at 10 µM is -1.39%.
With `Nc1nc2[nH]cc(CCc3ccc(C(=O)N[C@@H](CCC(=O)O)C(=O)O)cc3)c2c(=O)[nH]1` [Pemetrexed] the figure was 0.519%.
With `Cc1nc(Nc2ncc(C(=O)Nc3c(C)cccc3Cl)s2)cc(N2CCN(CCO)CC2)n1` [Dasatinib (BMS-354825)] the figure was -9.79%; with `O=C(c1ccccc1)c1ccc2n1CCC2C(=O)O` (centres unmarked) [Ketorolac (Toradol)], 37.4%; with `COc1cc(C(C)=O)ccc1OCCCN1CCC(c2noc3cc(F)ccc23)CC1` [Iloperidone (Fanapt)], 21.7%.
Take `c1coc(CNc2ncnc3[nH]cnc23)c1` [Kinetin (6-Furfuryladenine)]: the inhibition at 10 µM was -0.453%.
Next, `CCCC(=O)O` [Sodium butyrate]: 0.412%; `C[C@@H]1[C@H](O)[C@@H](C)/C=C/C=C/CC/C=C/C=C/C=C/C=C/[C@H](O[C@@H]2O[C@H](C)[C@@H](O)[C@H](N)[C@@H]2O)C[C@@H]2O[C@](O)(C[C@@H](O)[C@H](O)CC[C@@H](O)C[C@@H](O)C[C@@H](O)CC(=O)O[C@H]1C)C[C@H](O)[C@H]2C(=O)O` [Nystatin (Mycostatin)]: 4%.
Take `O=c1oc2cc(O)ccc2s1` [Tioxolone]: the inhibition at 10 µM is -0.329%.
Next, `O=c1[nH]cnc2[nH]ncc12` [Allopurinol Sodium (Aloprim)]: 21.4%; `C[C@@H]1C/C=C/C=C/C=C/C=C/[C@H](O[C@@H]2O[C@H](C)[C@@H](O)[C@H](N)[C@@H]2O)C[C@@H]2O[C@](O)(C[C@@H](O)C[C@H]3O[C@@H]3/C=C/C(=O)O1)C[C@H](O)[C@H]2C(=O)O` [Natamycin (Pimaricin)]: -0.639%.
With `CN1CCN2c3ccccc3Cc3ccccc3C2C1` (centres unmarked) [Mianserin hydrochloride] the figure was -2.1%; with `N[C@@H](Cc1c[nH]c2ccc(O)cc12)C(=O)O` [5-hydroxytryptophan (5-HTP)], -0.632%; with `Nc1nc(=O)[nH]cc1F` [Flucytosine (Ancobon)], 3.84%.
With `CO[C@H]1C[C@@H]2CC[C@@H](C)[C@@](O)(O2)C(=O)C(=O)N2CCCC[C@H]2C(=O)O[C@H]([C@H](C)C[C@@H]2CC[C@@H](O)[C@H](OC)C2)CC(=O)[C@H](C)/C=C(\C)[C@@H](O)[C@@H](OC)C(=O)[C@H](C)C[C@H](C)/C=C/C=C/C=C/1C` [Rapamycin (Sirolimus)] the figure was -1.51%.
In the case of `Cc1ccc(Nc2nccc(N(C)c3ccc4c(C)n(C)nc4c3)n2)cc1S(N)(=O)=O` [Pazopanib HCl], the inhibition at 10 µM is -2.36%.
As for `Clc1cccc(Cl)c1NC1=NCCN1` [Clonidine hydrochloride (Catapres)], the inhibition at 10 µM is -1.98%.

Broadly, the inhibition is the drop in the measured response relative to a control, in per cent.
